Measured values taken from patent publication US5516797A, “Immunosuppressive compounds” (Vertex Pharmaceuticals, Incorporated, priority 1994, dated 1996).

How the values were obtained:
[1] = system: human peripheral blood lymphocytes; experiment: Mitogenesis assay PMA: inhibition of proliferation of human PBLs; type: cell-based; settings: Lymphocyte, PMA (10 ng/ml) plus ionomycin (250 ng/ml), 48 h incubation
Protocol: (§1) PMA and OKT3mitogens used to stimulate proliferation of human peripheral
(§2) blood lymphocytes (PBC). Compounds are evaluated on their ability to
(§3) Fresh peripheral blood lymphocytes (PBLs) from LeukoPak cells or whole blood from random normal blood donors (tested HIV-negative and hepatitis negative) are isolated and separated by density centrifugation over Histopaque 1077 (Sigma Chemical Co., St. Louis, Mo.). The murine CTLL cytotoxic T cell line and the human Jurkat T cell line are from ATCC (CTLL-2 ATCC TIB214, JURKAT CLONE E6-1 ATCC TIBl52). The human allogeneic B cell lines used for activation of the fresh PBLs are EBV-transformed lymphocytes from normal healthy adult donors with two completely different HLAhaplotypes. All cell lines were routinely tested for the presence of Mycolasma contamination using the GibcoMycotect test kit and are Mycolasma-free. Culture medium consksts of RPMI 1640 (Gibco, Grand Island, N.Y.) containing penicillin (50 U/ml) and streptomycin (50 μg/ml), L-glutamine 2 mM, 2 mercaptoethanol (5×10^-5), 10% heat-inactivated FCS and 10 mM HEPES.
(§4) All chemical stocks were dissolved in DMSO.
(§5) Mitogenesis Assays ("PMA" and "OKT3")
(§6) After 48 h incubation (37° C., 5% CO2), cells were pulsed with 1 μCi of ^3 H-thymidine, harvested 24 h later with a Tom Tek cell harvester, and counted in LKB β-scintillation counter.

[2] = system: PBLs stimulated with JVM human viral transformed B lymphoblastoid cells; experiment: MLR bioassay JVM: inhibition of proliferation in mixed lymphocyte reaction; type: cell-based; settings: Lymphoblastoid cell, pulsed on day 6, harvested 24 h later
Protocol: (§7) LB and JVMhuman viraltransformed B lymphoblastoid cell lines stimulated t
(§8) proliferate in a mixed lymphocyte reaction (MLR). The compounds are
(§9) evaluated on their ability to inhibit this proliferation.
as §3, §4
(§10) MLR Bioassays ("LB" and "JVM")
(§11) Antigen activated proliferation of PBLs in a primary mixed lymphocyte reaction was assessed in the presence or absence of different concentrations of tested compounds and control drugs. 5×10^4 fresh PBLs were stimulated with 5×10^3 of Mitomycin C treated-allogeneic EBV-transformed β-lymphoglastoid cells, IB and JVM, in a final volume of 200 μl per well in 96-well round-bottomed plates (Mishell, B. B. and S. M. Shiigi, Selected Methods in Cellular Immunology W. H. Freeman and Co., San Francisco, Calif. (1980); Nelson, P. A. et al., Transplantation 50:286 (1990)). Cultures were pulsed on day 6, harvested 24 h later and counted as in previous section.

[3] = target: FK-506 binding protein (FKBP) (Homo sapiens, UniProt P62942); experiment: Inhibition of PPIase (rotamase) enzyme activity of FKBP (apparent Ki); type: biochemical; settings: substrate N-succinylAla-Ala-Pro-Phe-p-nitroanilide, chymotrypsin-coupled
Chain of FK-506 binding protein (FKBP) (P62942 whole entry): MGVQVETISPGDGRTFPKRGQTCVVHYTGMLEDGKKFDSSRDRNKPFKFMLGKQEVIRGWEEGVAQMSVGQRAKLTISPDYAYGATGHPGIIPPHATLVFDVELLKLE
From the text: The inhibition of the PPIase (rotamase) enzyme activity of the FKBP (apparent "Ki" values) can also be measured according to the methods described by either Harding, M. W. et al., Nature 341:758-760 (1989) or Siekierka, J. J. et al., Nature 341:755-757 (1989). The cis-trans isomerization of the proline-alanine peptide bond in a model substrate, N-succinylAla-Ala-Pro-Phe-p-nitroanilide, is monitored spectrophotometrically in a coupled assay with chymotrypsin, which releases 4-nitroanilide from the trans form of the substrate. Fischer, G. et al., Nature 337:476-478 (1989). The inhibitory effect of the addition of different concentrations of inhibitor on the extent of the reaction is determined, and analysis of the change in first order rate constant as a function of inhibitor concentration yields an estimate of the apparent Ki value.

[4] = system: PBLs stimulated with LB human viral transformed B lymphoblastoid cells; experiment: MLR bioassay LB: inhibition of proliferation in mixed lymphocyte reaction; type: cell-based; settings: Lymphoblastoid cell, pulsed on day 6, harvested 24 h later
Protocol: as §7, §8, §9, §3, §4, §10, §11

[5] = system: human peripheral blood lymphocytes; experiment: Mitogenesis assay OKT3: inhibition of proliferation of human PBLs; type: cell-based; settings: Lymphocyte, OKT3 (10^-4 dilution final), 48 h incubation
Protocol: as §1, §2, §3, §4, §5, §6

Row | Ki [3] [µM] | SMILES | IC50 [1] [µM] | IC50 [2] [µM] | IC50 [4] [µM] | IC50 [5] [µM]
1 | 0.1 | CC(C)Oc1cccc(C(=O)C(=O)N2CCCC[C@H]2C(=O)OCCCCc2ccccc2)c1 [Compound 76] | 5 | > 10 | 9 | 10
2 | 0.5 | O=C(C(=O)N1CCCC[C@H]1C(=O)OCCCCCCc1ccccc1)c1ccccc1 [Compound 69] | 6.1 | > 10 | > 10 | > 10
3 | 0.6 | C/C(=C\[C@H]1CC[C@@H](O)CC1)COC(=O)[C@@H]1CCCCN1C(=O)C(=O)c1ccccc1 [Compound 25, (E)-3-[cis-4-(hydroxycyclohexyl)]-2-methylprop-2-enyl N-(phenylglyoxyl)-pipecolate] | > 10 | > 10 | > 10 | > 10
4 | 0.5 | COc1cc(C(=O)C(=O)N2CCCC[C@H]2C(=O)OCCC=Cc2ccccc2)cc(OC)c1OC [Compound 87] | 7 | > 10 | > 10 | > 10
5 | 0.7 | COc1ccc(COCc2coc(C(=O)C(=O)N3CCCC[C@H]3C(=O)OCCCCc3ccccc3)c2)cc1 [Compound 103] | 7 | > 10 | 10 | 10
6 | 0.07 | COc1cc(C(=O)C(=O)N2CCCC[C@H]2C(=O)OCCCCCc2ccccc2)cc(OC)c1OC [Compound 70] | 7 | 9 | > 10 | 4.5
7 | 0.6 | CC(C)(C)c1ccc(C(=O)C(=O)N2CCCC[C@H]2C(=O)OCCCCc2ccccc2)cc1 [Compound 97] | > 10 | > 10 | > 10 | > 10
8 | 0.11 | COc1cc(C(=O)C(=O)N2CCCC[C@H]2C(=O)OCCCc2ccccc2)cc(OC)c1OC [Compound 83] | 5.5 | 7.5 | 8.5 | 5.5
9 | 1.4 | COc1cc(C(=O)C(=O)N2CCCC[C@H]2C(=O)OCc2ccc(I)cc2)cc(OC)c1OC [Compound 78] | > 10 | > 10 | > 10 | > 10
10 | 1.6 | CCC(=O)C(=O)N1CCCC[C@H]1C(=O)OCCCCc1ccccc1 [Compound 105] | > 10 | > 10 | > 10 | > 10
11 | 0.8 | COc1cc(C(=O)C(=O)N2CCCC[C@H]2C(=O)OCC=CCc2ccccc2)cc(OC)c1OC [Compound 86] | 9 | > 10 | > 10 | > 10
12 | 0.36 | CCCCOc1cccc(C(=O)C(=O)N2CCCC[C@H]2C(=O)OCc2ccccc2)c1 [Compound 75] | 8 | > 10 | 9 | > 10
13 | 1 | C=CCOc1cccc(C(=O)C(=O)N2CCCC[C@H]2C(=O)OCc2ccccc2)c1 [Compound 65] | > 10 | > 10 | > 10 | > 10
14 | 0.54 | O=C(OCCCc1ccccc1)[C@@H]1CCCCN1C(=O)C(=O)C1(F)CCCCC1 [Compound 91] | > 10 | > 10 | > 10 | > 10
15 | 0.22 | COc1cc(C(=O)C(=O)N2CCCC[C@H]2C(=O)OCCc2ccc3ccccc3c2)cc(OC)c1OC [Compound 79] | 10 | > 10 | > 10 | 2.5
16 | 1.4 | CCCCOc1cccc(C(=O)C(=O)N2CCCC[C@H]2C(=O)OCCCc2ccccc2)c1 [Compound 92] | 9 | > 10 | > 10 | > 10
17 | 0.25 | O=C(C(=O)N1CCCC[C@H]1C(=O)OCCCCc1ccccc1)c1ccc2c(c1)OCO2 [Compound 100] | > 10 | > 10 | > 10 | > 10
